“Also recorded” adds a separate entry of the source. Counter-ions that a name gives are not always drawn.
How the values were obtained:
[1] = system: retinal ischemia reperfusion (I/R) in rat; assay: Acute changes in rat retinal structure after retinal ischemia reperfusion (I/R), prophylactic settings; type: in vivo, male Wistar Unilever rats; details: I/R rats
Description: B-7 Evaluation of Acute Changes in Rat Retinal Structure after Retinal Ischemia Reperfusion (I/R) Prophylactic Settings
Six male Wistar Unilever rats were used per experimental group. On induction day, rats were anesthetized with an intraperitoneal injection of Rompun® and Ketavet® before the pupils of the right eyes (oculus dextrus, OD) were dilated with Alcain eye drops and in addition treated with Vigamox® eye drops. The left eye (oculus sinister, OS) is covered with Bepanthen® eye cream. Under deep anesthesia, the retina and the optic nerve were examined by optical coherence tomography (OCT) as a baseline measurement. 15 minutes before induction, group 2 received an intravenous (IV) bolus of compound (e.g. example 3, formula I-E-R) (i.v. 3 mg/kg in rat plasma). Then, the anterior chamber was punctured with a 30 G needle. Through a tube, 0.9% NaCl solution was pumped into the anterior chamber with a pressure 120 mm Hg. The pressure is regulated with a blood pressure cuff. The intraocular pressure (IOP) was elevated for 45 min. The procedure was successful as the eyeballs discolored because of vascular obstruction. After 45 min, the needle was removed, eye cream was put on the right eye and the animal could wake up. […]
Functional read-out of retinal electrical signal in response to light stimulation “b-wave amplitude (μv)” represents inner retinal function. […]

[2] = system: Streptozotocin-induced DR model in rat; assay: Streptozotocin-induced DR model in rat (STZ rat model); type: in vivo; details: STZ diabetic rats, vs vehicle
Method: B-9 Streptozotocin-Induced DR Model in Rat (STZ Rat Model)
135 male 6-week-old male SD rats (200 to 250 g) were randomized to become diabetic or non-diabetic. Following an overnight fast, SD rats were assigned to become diabetic by receiving a single intraperitoneal injection of streptozotocin (55 mg per kg; Sigma-Aldrich, St. Louis, USA) diluted in 0.1M citrate buffer, pH 4.5. Rats were weighed and their blood glucose levels measured (Accu-check Advantage II Blood Glucose Monitor, Roche Diagnostics, USA). Only rats with blood glucose levels greater than 250 mg/dL were considered diabetic (Li et al. 2002). Insulin was administered three times per week to reduce mortality and promote weight gain (2 to 4 units s.c. Humulin NPH, Eli Lilly and Co., Indianapolis, Ind., USA). The pathological events that occur in the early stages of DR were evaluated. Functional read-out of retinal electrical signal in response to light stimulation “b-wave amplitude (μv)” represents inner retinal function. The retinal function ERG (Electroretinography) was tested 2 months after STZ injection according to the method disclosed in McCulloch et al., 2015 and animals were randomized into subgroups with same severity. The animals received treatment after randomization for 2 months and were terminated then after. […]

Compound: CC(C)CN1CCN(c2ccc(-c3ccc(Cl)cc3N3CCC[C@@H](n4ncc(C(=O)O)c4C(F)F)C3)cc2)CC1 [Example 3, 1-{1-[4-Chloro-4′-(4-isobutylpiperazin-1-yl)[biphenyl]-2-yl]piperidin-3-yl}-5-(difluoromethyl)-1H-pyrazole-4-carboxylic acid hydrochloride]
- retinal structure (OCT and histological examination) ([1]; day 7 post ischemic induction): preserved retinal structure in both OCT and histological examination
- b wave amplitude (ERG, retinal function) ([1]; oral QD from 2 days before to 6 days after induction plus i.v. 3 mg/kg bolus 15 min before induction, day 7 post induction, hydrochloride, 3 mg/kg): significant higher b wave amplitude compared to vehicle treated animals; also recorded: reduces ischemia induced retinal dysfunction
- b wave amplitude (ERG, retinal function) ([2]; 15 mg/kg oral gavage QD for 2 months, started 2 months after STZ, hydrochloride, 15 mg/kg): significant higher b wave amplitude compared to vehicle treated animals; also recorded: reduces diabetic induced retinal dysfunction and diabetic retinopathy progression
- diabetic retinopathy disease progression (b wave values) ([2]; oral QD, chronic diabetic retinopathy model): prevented disease progression

— patent US20230346777A1, “USE OF SGC ACTIVATORS FOR THE TREATMENT OF OPHTHALMOLOGIC DISEASES” (Bayer Aktiengesellschaft, priority 2020, published 2023)
